Laboratory results from patent publication US10745400B2, “Inhibition of BMP signaling, compounds, compositions and uses thereof” (Vanderbilt University, priority 2018, dated 2020).
Numbering of substitutions follows the chain as printed. Like-named read-outs stand apart in the source and are kept apart here.

Key:
[1] = target: ALK1/ACVRL1 (Homo sapiens, UniProt P37023); assay: Kinase assay (33P-ATP filter-binding), ALK1; type: biochemical; conditions: read-out: Kinase Selectivity ALK1/ACVRL1
How it was run: (§1)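 Substrate in 20 mM Hepes pH 7.5, 10 mM MgCl2, 1 mM EGTA, 0.02% Brij35, 0.02 mg/ml BSA, 0.1 mM Na3VO4, 2 mM DTT, 1% DMSO with kinase; compound preincubated 20 minutes at room temperature. 33P-ATP then started the reaction, run 2 hours at room temperature, with P81 filter-binding read-out.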

[2] = target: T1, ALK2 (Q207D) (Homo sapiens, UniProt Q04771, Q207D); assay: Kinase assay (33P-ATP filter-binding), ALK2 Q207D; type: biochemical; conditions: Q207D mutant, 20 mM; read-out: Kinase Selectivity ALK2 (Q207D, 20 mM)
T1 sequence (Q04771 21-509 Q207D): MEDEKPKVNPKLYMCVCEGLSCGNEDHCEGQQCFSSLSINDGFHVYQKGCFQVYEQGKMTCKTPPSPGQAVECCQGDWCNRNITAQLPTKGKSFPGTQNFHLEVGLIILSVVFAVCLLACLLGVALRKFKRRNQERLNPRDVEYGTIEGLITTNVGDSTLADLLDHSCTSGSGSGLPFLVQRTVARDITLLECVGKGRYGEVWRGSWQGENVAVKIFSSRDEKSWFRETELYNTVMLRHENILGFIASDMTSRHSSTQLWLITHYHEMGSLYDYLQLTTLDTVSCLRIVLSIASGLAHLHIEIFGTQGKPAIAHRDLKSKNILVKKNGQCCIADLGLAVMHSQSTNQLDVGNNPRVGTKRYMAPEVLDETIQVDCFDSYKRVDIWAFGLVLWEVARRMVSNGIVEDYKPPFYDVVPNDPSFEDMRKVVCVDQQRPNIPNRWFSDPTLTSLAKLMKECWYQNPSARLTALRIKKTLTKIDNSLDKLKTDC
How it was run: as §1

[3] = target: T2, ALK2 (R206H) (Homo sapiens, UniProt Q04771, R206H); assay: Kinase assay (33P-ATP filter-binding), ALK2 R206H; type: biochemical; conditions: R206H mutant, 20 mM; read-out: Kinase Selectivity ALK2 (R206H, 20 mM)
T2 sequence (Q04771 21-509 R206H): T1 sequence (Q04771 21-509 Q207D) with R186H, D187Q
How it was run: as §1

[4] = target: ALK3/BMPR1A (Homo sapiens, UniProt P36894); assay: Kinase assay (33P-ATP filter-binding), ALK3; type: biochemical; conditions: 1 mM; read-out: Kinase Selectivity ALK3/BMPR1A (1 mM)
ALK3/BMPR1A, sequence (P36894 24-532): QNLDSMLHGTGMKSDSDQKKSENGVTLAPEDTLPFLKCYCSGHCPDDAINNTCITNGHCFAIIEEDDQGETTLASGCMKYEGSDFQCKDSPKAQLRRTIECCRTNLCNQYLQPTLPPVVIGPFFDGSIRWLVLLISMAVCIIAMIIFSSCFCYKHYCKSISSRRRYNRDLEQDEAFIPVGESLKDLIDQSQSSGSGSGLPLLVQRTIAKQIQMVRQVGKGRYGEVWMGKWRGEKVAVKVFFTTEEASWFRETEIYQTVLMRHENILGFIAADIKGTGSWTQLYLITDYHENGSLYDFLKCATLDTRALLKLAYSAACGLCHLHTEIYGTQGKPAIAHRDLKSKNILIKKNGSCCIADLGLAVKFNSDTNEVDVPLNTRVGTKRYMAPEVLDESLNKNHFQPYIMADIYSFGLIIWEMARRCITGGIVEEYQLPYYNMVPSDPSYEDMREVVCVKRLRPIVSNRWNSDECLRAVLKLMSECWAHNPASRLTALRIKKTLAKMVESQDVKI
How it was run: as §1

[5] = target: T3, ALK4 (Homo sapiens, UniProt P36896); assay: Kinase assay (33P-ATP filter-binding), ALK4; type: biochemical; conditions: read-out: Kinase Selectivity ALK4
T3 sequence (P36896 24-505): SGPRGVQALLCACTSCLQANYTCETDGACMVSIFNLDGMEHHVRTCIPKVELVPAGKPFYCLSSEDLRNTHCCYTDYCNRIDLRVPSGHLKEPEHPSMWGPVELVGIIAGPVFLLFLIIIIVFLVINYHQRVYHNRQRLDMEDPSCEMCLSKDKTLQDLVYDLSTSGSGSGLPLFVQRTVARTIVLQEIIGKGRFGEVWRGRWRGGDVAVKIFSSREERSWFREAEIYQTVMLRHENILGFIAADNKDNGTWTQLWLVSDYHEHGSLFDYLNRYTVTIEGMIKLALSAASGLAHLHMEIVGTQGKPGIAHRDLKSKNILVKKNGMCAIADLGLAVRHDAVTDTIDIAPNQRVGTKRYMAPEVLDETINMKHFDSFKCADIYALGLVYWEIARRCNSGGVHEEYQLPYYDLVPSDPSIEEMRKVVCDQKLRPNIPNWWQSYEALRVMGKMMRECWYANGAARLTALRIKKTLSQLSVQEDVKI
Protocol: (§2) The kinase assays were carried out briefly as follows. Substrate was prepared in Base Reaction Buffer (20 mM Hepes (pH 7.5), 10 mM MgCl2, 1 mM EGTA, 0.02% Brij35, 0.02 mg/ml BSA, 0.1 mM Na3VO4, 2 mM DTT, 1% DMSO). The indicated kinases was delivered into the substrate solution and allowed to gently mix. Next, the specific compound was delivered in DMSO into the kinase mixture by Acoustic technology (Echo550; nanoliter range), and allowed to incubate for 20 minutes at room temperature. Next, ^33P-ATP was delivered into the reaction mixture to initiate the reaction and allowed to incubate at room temperature. After 2 hours, the reactions were spotted onto P81 ion exchange paper and the kinase activity is detected by the filter-binding method.

[6] = target: ALK6 (Homo sapiens, UniProt O00238); assay: Kinase assay (33P-ATP filter-binding), ALK6; type: biochemical; conditions: read-out: Kinase Selectivity ALK6
ALK6, sequence (O00238 14-502): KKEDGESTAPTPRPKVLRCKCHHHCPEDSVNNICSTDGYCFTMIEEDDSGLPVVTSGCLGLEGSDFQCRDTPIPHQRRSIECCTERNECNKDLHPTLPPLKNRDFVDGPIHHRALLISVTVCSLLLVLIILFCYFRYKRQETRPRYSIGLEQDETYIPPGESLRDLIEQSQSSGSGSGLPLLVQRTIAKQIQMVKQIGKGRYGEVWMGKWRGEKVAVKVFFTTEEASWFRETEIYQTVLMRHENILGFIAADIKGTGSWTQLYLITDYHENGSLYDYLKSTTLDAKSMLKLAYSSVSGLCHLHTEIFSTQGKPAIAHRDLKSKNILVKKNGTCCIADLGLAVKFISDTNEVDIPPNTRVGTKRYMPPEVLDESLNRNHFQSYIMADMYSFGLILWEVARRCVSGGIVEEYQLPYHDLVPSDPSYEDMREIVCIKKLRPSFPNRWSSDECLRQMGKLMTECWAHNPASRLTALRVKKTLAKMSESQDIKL
Protocol: as §2

[7] = target: TGFbR2 (Homo sapiens, UniProt P37173); assay: Kinase assay (33P-ATP filter-binding), TGFbR2; type: biochemical; conditions: read-out: Kinase Selectivity TGFbR2
TGFbR2, sequence (P37173 23-567, species assumed): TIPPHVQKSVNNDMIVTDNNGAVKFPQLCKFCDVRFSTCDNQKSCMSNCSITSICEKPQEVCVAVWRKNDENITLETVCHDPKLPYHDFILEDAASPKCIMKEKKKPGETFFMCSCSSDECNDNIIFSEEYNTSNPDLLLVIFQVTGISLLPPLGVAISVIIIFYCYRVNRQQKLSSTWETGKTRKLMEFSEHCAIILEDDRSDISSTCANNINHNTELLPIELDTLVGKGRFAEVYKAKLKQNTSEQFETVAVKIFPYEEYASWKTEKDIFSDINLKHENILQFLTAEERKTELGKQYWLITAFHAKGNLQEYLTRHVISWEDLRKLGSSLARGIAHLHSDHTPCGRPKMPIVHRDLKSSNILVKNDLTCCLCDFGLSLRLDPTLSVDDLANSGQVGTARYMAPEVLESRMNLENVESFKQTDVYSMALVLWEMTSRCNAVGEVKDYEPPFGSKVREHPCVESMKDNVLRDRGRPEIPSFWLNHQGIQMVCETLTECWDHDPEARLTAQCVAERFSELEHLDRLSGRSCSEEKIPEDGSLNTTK
Protocol: as §2

[8] = target: AMPK; assay: Kinase assay (33P-ATP filter-binding), AMPK; type: biochemical; conditions: read-out: Kinase Selectivity AMPK
Protocol: as §2

[9] = target: KDR (Homo sapiens, UniProt P35968); assay: Kinase assay (33P-ATP filter-binding), KDR; type: biochemical; conditions: read-out: Kinase Selectivity KDR
KDR, sequence (P35968 20-1356, species assumed): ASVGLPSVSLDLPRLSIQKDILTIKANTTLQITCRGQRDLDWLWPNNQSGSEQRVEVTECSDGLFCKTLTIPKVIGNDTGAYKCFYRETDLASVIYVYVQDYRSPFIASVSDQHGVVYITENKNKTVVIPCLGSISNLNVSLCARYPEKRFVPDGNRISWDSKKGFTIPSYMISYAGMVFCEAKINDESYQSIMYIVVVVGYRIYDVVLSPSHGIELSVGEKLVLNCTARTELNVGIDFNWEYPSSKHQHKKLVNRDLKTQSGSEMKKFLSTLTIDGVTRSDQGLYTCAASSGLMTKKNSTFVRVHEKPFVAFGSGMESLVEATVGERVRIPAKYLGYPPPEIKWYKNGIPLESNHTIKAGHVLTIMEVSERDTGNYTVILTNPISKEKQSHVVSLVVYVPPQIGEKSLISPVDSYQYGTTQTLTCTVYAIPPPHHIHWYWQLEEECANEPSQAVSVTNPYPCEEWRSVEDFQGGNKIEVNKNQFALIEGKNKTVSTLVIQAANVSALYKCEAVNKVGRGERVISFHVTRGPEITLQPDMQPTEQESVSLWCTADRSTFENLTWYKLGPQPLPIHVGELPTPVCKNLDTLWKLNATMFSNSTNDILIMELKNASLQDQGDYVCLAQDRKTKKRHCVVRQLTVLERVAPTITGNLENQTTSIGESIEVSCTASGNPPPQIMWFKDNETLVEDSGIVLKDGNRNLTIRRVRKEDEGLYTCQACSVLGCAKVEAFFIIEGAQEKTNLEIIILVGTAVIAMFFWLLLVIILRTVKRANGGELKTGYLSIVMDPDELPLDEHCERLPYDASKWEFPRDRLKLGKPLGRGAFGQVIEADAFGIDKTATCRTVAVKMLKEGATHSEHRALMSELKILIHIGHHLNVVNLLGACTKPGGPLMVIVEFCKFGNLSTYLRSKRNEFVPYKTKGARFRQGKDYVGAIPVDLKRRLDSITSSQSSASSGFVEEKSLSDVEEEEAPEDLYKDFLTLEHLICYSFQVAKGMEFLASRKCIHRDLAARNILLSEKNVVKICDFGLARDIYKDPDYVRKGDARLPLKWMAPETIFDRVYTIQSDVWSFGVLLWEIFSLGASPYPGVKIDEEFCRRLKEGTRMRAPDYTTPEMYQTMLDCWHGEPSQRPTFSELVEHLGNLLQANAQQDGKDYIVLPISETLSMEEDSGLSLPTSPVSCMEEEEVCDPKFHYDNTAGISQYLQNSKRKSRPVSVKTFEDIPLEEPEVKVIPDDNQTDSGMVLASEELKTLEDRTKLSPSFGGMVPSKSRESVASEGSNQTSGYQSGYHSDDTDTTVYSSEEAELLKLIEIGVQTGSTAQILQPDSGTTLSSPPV
Protocol: as §2

[10] = target: PDGFRb (Homo sapiens, UniProt P09619); assay: Kinase assay (33P-ATP filter-binding), PDGFRb; type: biochemical; conditions: read-out: Kinase Selectivity PDGFRb
PDGFRb, sequence (P09619 33-1106, species assumed): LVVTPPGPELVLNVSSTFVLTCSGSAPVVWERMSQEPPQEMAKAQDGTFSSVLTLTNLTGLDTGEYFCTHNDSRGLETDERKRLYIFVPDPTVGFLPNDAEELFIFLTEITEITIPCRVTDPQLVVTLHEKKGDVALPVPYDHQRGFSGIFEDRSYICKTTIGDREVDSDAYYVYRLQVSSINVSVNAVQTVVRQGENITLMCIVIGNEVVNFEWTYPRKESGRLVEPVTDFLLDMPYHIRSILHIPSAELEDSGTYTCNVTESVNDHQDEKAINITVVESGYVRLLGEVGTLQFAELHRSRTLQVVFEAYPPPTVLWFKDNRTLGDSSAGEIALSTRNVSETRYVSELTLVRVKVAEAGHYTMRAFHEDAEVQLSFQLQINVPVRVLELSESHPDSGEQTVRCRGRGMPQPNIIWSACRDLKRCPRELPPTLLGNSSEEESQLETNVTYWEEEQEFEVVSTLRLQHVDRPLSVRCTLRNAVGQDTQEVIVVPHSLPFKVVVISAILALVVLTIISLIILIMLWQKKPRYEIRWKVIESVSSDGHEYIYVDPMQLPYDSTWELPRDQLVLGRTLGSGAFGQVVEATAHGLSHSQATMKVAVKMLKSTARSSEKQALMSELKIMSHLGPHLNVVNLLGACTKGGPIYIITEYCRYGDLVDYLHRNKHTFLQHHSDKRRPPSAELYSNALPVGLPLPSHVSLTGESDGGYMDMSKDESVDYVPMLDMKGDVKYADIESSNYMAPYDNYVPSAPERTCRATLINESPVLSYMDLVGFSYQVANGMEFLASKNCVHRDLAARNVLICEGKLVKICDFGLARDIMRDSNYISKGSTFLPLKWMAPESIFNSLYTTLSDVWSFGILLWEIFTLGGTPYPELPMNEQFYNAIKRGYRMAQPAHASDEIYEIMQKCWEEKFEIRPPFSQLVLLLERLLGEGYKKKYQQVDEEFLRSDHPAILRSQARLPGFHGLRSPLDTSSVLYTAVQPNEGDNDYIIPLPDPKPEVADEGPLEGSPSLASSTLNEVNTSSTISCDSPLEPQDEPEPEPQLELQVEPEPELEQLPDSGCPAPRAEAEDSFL
Protocol: as §2

[11] = test system: BMP-responsive C2C12 mouse myoblast cells stimulated with BMP4; assay: BMP4 cell assay (Id1 promoter-firefly luciferase reporter); type: cell-based; conditions: Mus musculus; C2C12 cells, BMP4 50 ng/mL, overnight
[12] = Intrinsic clearance, mouse; type: in vitro ADME; conditions: mouse
[13] = Protein binding, human; type: in vitro ADME
[14] = CL-Hep, value in parentheses, read-out: Intrinsic Clearance Mouse (CL-Hep)
[15] = read-out: Intrinsic Clearance Mouse

ALK1/ACVRL1, sequence (P37023 22-503): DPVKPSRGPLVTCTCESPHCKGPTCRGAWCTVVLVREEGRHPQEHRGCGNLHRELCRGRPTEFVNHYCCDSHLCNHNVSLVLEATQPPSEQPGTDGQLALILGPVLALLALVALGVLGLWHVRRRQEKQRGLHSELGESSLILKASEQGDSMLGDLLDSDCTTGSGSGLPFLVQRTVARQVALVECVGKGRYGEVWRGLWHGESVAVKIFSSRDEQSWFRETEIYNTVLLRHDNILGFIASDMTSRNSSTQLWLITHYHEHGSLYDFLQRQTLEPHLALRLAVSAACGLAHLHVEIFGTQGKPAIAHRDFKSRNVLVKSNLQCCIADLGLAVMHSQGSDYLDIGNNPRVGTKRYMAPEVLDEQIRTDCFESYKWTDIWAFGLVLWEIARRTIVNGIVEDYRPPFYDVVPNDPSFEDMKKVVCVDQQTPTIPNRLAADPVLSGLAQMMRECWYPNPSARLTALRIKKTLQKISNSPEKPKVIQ

Row | IC50 [1] | IC50 [2] | IC50 [3] | IC50 [4] | IC50 [5] | IC50 [6] | IC50 [7] | IC50 [8] | IC50 [9] | IC50 [10] | IC50 [11] | CLint scaled [12, 14] | CLint scaled [12, 15] | Protein Binding (% Free) Human [13] | SMILES
1 | 152 nM | 6.3 nM | < 5.1 nM | < 5.1 nM | 775 nM | 188 nM | 620 nM | 39100 nM | 39300 nM | 7700 nM | 87.7 nM | < 32.9 mL/min/kg | < 49.5 mL/min/kg | 5.61 % Free | Cc1cc(-c2cnc3cc(-c4ccc(C5COC6(CCNCC6)CN5)cc4)ccn23)c2cc(F)cc(F)c2n1 (stereo not shown) [Compound 16]
2 | 907 nM | 219 nM | 326 nM | 13.5 nM | 2030 nM | 429 nM | 1870 nM | 18900 nM | > 100000 nM | 21700 nM | 248 nM | < 32.9 mL/min/kg | < 49.5 mL/min/kg | 4.97 % Free | Cc1cc(-c2cnc3cc(-c4ccc(C5COC6(CCNC6)CN5)cc4)ccn23)c2cc(F)cc(F)c2n1 (stereo not shown) [Compound 27]
3 | 197 nM | < 5.1 nM | 15.8 nM | < 5.1 nM | 192 nM | 54.5 nM | 4590 nM | 20000 nM | 9350 nM | 2820 nM | 13.5 nM | < 31.9 mL/min/kg | < 49.5 mL/min/kg | 42.8 % Free | c1cnc2nccc(-c3cnc4cc(-c5ccc(C6CNCCN6)cc5)ccn34)c2c1 (stereo not shown) [Compound 32]
4 | 61.3 nM | < 5.1 nM | < 5.1 nM | 82.7 nM | 775 nM | 188 nM | 620 nM | 39100 nM | 39300 nM | 7700 nM | 87.7 nM | < 31.9 mL/min/kg | < 49.5 mL/min/kg | 11 % Free | c1cc(-c2cnc3cc(-c4ccc(C5CNCCN5)cc4)ccn23)c2cccnc2c1 (stereo not shown) [Compound 33]

Second part, the compound before the results:

Row | SMILES | IC50 [1] | IC50 [2] | IC50 [3] | IC50 [4] | IC50 [5] | IC50 [6] | IC50 [7] | IC50 [8] | IC50 [9] | IC50 [10] | IC50 [11] | CLint scaled [12, 14] | CLint scaled [12, 15] | Protein Binding (% Free) Human [13]
5 | Cc1cc(-c2cnc3cc(-c4ccc(C5COCC(C)N5)cc4)ccn23)c2cc(F)cc(F)c2n1 (stereo not shown) [Compound 23] | 42.8 nM | < 5.1 nM | < 5.1 nM | < 5.1 nM | 164 nM | 369 nM | 560 nM | > 100000 nM | 47400 nM | 7340 nM | – | 42.9 mL/min/kg | 82.2 mL/min/kg | 1.11 % Free
6 | O=C1CNC(=O)C(c2ccc(-c3ccn4c(-c5cccc6ncccc56)cnc4c3)cc2)N1 (stereo not shown) [Compound 36] | 84.9 nM | < 5.1 nM | < 5.1 nM | 295 nM | 390 nM | 188 nM | 498 nM | 11500 nM | 36900 nM | 6930 nM | 29.6 nM | – | – | –
7 | NS(=O)(=O)c1ccc(-c2cnc3cc(-c4ccc(C5CNCCN5)cc4)ccn23)c2ccccc12 (stereo not shown) [Compound 37] | 723 nM | 5.8 nM | 13.2 nM | 20300 nM | 386 nM | 231 nM | 2680 nM | 9320 nM | 31400 nM | 6490 nM | 34.9 nM | < 31.9 mL/min/kg | < 49.5 mL/min/kg | 11.7 % Free
